Reference: paper PMC11505911, “Design and Synthesis of Small Molecule Probes of MDA-9/Syntenin” (Biomolecules, 2024)
Values joined by “and” are separate entries in the source; they are usually repeats but may differ in a detail not shown here. Equal values may be shown once. Read-outs that look alike come from different tables or passages of the source.

Experiments:
[1] = target: T1, MDA-9/Syntenin (Homo sapiens, UniProt O00560); conditions: cited from earlier work
T1 construct: made in house
T1 sequence (O00560 1-298): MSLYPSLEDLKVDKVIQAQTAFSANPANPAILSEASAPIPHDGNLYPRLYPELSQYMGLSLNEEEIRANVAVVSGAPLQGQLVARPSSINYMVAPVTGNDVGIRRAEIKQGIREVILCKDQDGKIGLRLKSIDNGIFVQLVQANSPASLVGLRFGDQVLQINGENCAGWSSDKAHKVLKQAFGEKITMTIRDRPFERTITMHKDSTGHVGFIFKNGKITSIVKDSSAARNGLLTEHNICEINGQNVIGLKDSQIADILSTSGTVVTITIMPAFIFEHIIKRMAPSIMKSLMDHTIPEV

[2] = target: T1, MDA-9/Syntenin; parameters: method as in printed; conditions: pre-PDZ1i molecules studied en route to the discovery of PDZ1i; ref not given; cited from earlier work
[3] = target: T1, MDA-9/Syntenin; assay: Fluorescence polarization titration of ligands into MDA-9/Syntenin; type: binding; conditions: 20 mM Tris-HCl, 100 mM NaCl, 0.01% PEG800, 0.05% Tween20, pH 7.4; single-site fit; minimum of two titrations
Protocol: Spectrofluorimetric titrations were performed on a Horiba QM400 spectrometer (HORIBA Scientific, Piscataway, NJ, USA). Excitation and emission wavelengths of 280 nm and 340 nm (600 nm for the reference emission wavelength) were used, with 5 nm excitation and 12 nm emission band widths, as described earlier. Experiments were performed in ratiometric mode, with excitation and emission polarizers set to 0,0 angles at room temperature. The titration buffer was 20 mM Tris-HCl buffer, pH 7.4. The stock concentrations of protein and ligands were 40 and 300–1000 μM, respectively. Whereas the protein was prepared in the titration buffer, the ligands were prepared in DMSO. The ligands (either URD001, NGI03, or NVS125) were titrated into the protein solution in aliquots, and saturable changes in fluorescence polarization were used to calculate the affinity. […] The emission intensities were corrected for dilution effects (<10% overall). The observed change in fluorescence polarization relative to initial signal (F0) was fitted using a standard single-site binding model to obtain the dissociation constant (KD) and the maximal change in fluorescence polarization (ΔF) at saturation.
We then explored fluorescence polarization (λEX = 280 nm, λEM = 340 nm; λREF = 600 nm) in 20 mM Tris-HCl containing 100 mM NaCl, 0.01% PEG800, and 0.05% Tween20, pH 7.4. Polarization relies on the change in molecular diffusion of the protein in the presence of a ligand as a probe of interaction. This technique worked well for PDZ1i, which presented a classic hyperbolic binding profile. […] For NGI03 and URD001, KDs of 1.1 and 3.0 μM, respectively, were measured. […] This implies that no reliable fit of the data could be obtained. Yet, based on the profile, the KD is likely to be more than 200 μM.

[4] = Aqueous solubility (qualitative); type: physicochemical; conditions: authors' observation
[5] = parameters: method as in printed; conditions: stated in introduction; ref not given; cited from earlier work

Compound | IC50 [2] [µM] | further results
IVMT-Rx-3: polyethylene glycol conjugation from truncated PDZ1i with a PDZ2-binding hexapeptide (TNEYYF) | – | Kd ([1]; binding domain PDZ1, PDZ2): 63 µM
Cc1cc(=O)n2nc(C(=O)Nc3ccc(O)cc3)nc2[nH]1 [112D11] | 245 | –
O=C(Nc1ccc(O)c(F)c1)c1nc2[nH]c3c(c(=O)n2n1)CCC3 [112F12] | 166 | –
Cc1cc(=O)n2nc(C(=O)Nc3ccc(N)cc3)nc2[nH]1 [112E7] | 944 | –
Cc1cc(=O)n2nc(C(=O)Nc3cc(Cl)c(O)c(Cl)c3)nc2[nH]1 [112G1] | 57.3 | –
Nc1ccc(NC(=O)c2nc3[nH]c4c(c(=O)n3n2)CCC4)cc1 [112G11] | 263 | –
Ephrin hexapeptide: hexapeptide epitope from ephrin B binding the PDZ2 domain (NIYYKV; Paralogue and species inferred; terminal caps unknown) | – | Kd ([1]; binding domain PDZ2): 790 µM
Cc1cc(NC(=O)c2nc3[nH]c4c(c(=O)n3n2)CCC4)c(C)cc1CCCC(c1nnc(-c2ccccc2)o1)c1nnc(-c2ccccc2)o1 [URD001, N-(4-(4,4-bis(5-phenyl-1,3,4-oxadiazol-2-yl)butyl)-2,5-dimethylphenyl)-8-oxo-5,6,7,8-tetrahydro-4H-cyclopenta[d][1,2,4]triazolo [1,5-a]pyrimidine-2-carboxamide] | – | Kd [3]: 3 µM; aqueous solubility [4]: aqueous solubility issues
O=C(Nc1ccc(O)c(Cl)c1)c1nc2[nH]c3c(c(=O)n2n1)CCC3 [112G3] | 119 | –
Cc1ccc(-c2nnc(CCC(=O)Cc3cc(C)c(C(=O)O)cc3C)o2)cc1 [NVS125] | – | Kd [3]: > 200 µM; aqueous solubility [4]: good aqueous solubility
O=C(Nc1ccc(O)cc1)c1nc2[nH]c3c(c(=O)n2n1)CCC3 [112E12] | 1610 | –
Cc1cc(NC(=O)OC(C)(C)C)c(C)cc1CCCC(c1nnc(-c2ccccc2)o1)c1nnc(-c2ccccc2)o1 [CMPD10] | 151 | –
Neurexin hexapeptide: hexapeptide epitope from neurexin binding the PDZ2 domain (TNEYYV) | – | Kd ([1]; binding domain PDZ2): 100 µM
Cc1cc(=O)n2nc(C(=O)Nc3cc(Cl)c(N)c(Cl)c3)nc2[nH]1 [112G4] | 34.3 | –
Cc1c(C)c(NC(=O)c2nc3[nH]c4c(c(=O)n3n2)CCC4)c(C)c(C)c1N [113B8] | 151 | –
Cc1cc(NC(=O)c2nc3[nH]c4c(c(=O)n3n2)CCC4)c(C)cc1NC(=O)CC(c1nnc(-c2ccccc2)o1)c1nnc(-c2ccccc2)o1 [NGI03, N-(4-(3,3-bis(5-phenyl-1,3,4-oxadiazol-2-yl)propanamido)-2,5-dimethylphenyl)-8-oxo-5,6,7,8-tetrahydro-4H-cyclopenta[d][1,2,4]triazolo[1,5-a]pyrimidine-2-carboxamide] | – | Kd [3]: 1.1 µM; aqueous solubility [4]: aqueous solubility issues
Cc1cc(NC(=O)c2nc3[nH]c4c(c(=O)n3n2)CCC4)c(C)cc1NC(=O)CCc1nnc(-c2ccccc2)o1 [PDZ1i] | – | Kd ([1]; binding domain PDZ1): 60 to 70 µM; Kd [3]: 78 µM and ~78 µM; aqueous solubility [5]: poor aqueous solubility
Cc1cc(=O)n2nc(C(=O)Nc3ccc(O)c(F)c3)nc2[nH]1 [112G2] | 147 | –
Cc1cc(=O)n2nc(COc3ccccc3)nc2[nH]1 [30A9] | 197 | –
